In US10752587B2, “Homobispiperidinyl derivatives as liver X receptor beta agonists, compositions and their use” (Merck Sharp & Dohme Corp., priority 2015, dated 2020):
Where two headings read alike, the source gives them in different places.

Columns and labels:
[1] = target: T1, glutathione-S-transferase (GST) tagged LXRbeta LBD (ligand binding domain) (Homo sapiens, UniProt P55055); assay: LanthaScreen TR-FRET Liver X Receptor Coactivator Assay, co-activator recruitment to LXRbeta LBD; format: biochemical; conditions: for Emax: read-out: LXR beta Activity @ max dose (%); for EC50: potency (Inflection Point, IP), co-activator recruitment to LXRbeta LBD, in relation to T0901317
T1 construct: purchased Invitrogen pv4658.pps
T1 sequence (P55055 222-460 limits assumed): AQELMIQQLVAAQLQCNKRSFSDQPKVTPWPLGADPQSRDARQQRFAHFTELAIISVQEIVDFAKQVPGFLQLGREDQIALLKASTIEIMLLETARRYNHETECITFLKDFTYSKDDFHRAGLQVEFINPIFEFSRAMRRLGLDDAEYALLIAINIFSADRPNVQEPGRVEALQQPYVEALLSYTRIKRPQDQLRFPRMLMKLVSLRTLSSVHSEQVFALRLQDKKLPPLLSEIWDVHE
In short: (§1)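 Compound-induced coactivator recruitment by the GST-fused ligand binding domain, detected as TR-FRET between Tb-labelled anti-GST antibody and fluorescein-tagged coactivator peptide after room-temperature incubation. IP and Emax expressed versus T0901317 as reference agonist.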

[2] = target: T2, glutathione-S-transferase (GST) tagged LXRalpha LBD (ligand binding domain) (Homo sapiens, UniProt Q13133); assay: LanthaScreen TR-FRET Liver X Receptor Coactivator Assay, co-activator recruitment to LXRalpha LBD; format: biochemical; conditions: for Emax: read-out: LXR alpha Activity @ max dose (%); for EC50 / LXR alpha IP (nM): potency (Inflection Point, IP), co-activator recruitment to LXRalpha LBD, in relation to T0901317; for EC50: read-out: LXR alpha IP
T2 construct: purchased Invitrogen pv4655
T2 sequence (Q13133 209-447 limits assumed): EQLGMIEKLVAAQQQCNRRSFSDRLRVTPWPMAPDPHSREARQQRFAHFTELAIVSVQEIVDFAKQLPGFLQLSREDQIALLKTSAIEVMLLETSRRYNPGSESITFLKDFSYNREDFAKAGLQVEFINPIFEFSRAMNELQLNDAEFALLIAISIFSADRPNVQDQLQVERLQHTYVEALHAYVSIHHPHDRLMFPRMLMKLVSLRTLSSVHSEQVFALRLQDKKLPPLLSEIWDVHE
In short: as §1

[3] = efficacy at max dose, in relation to reference dual agonist T0901317

| SMILES | Emax [1, 3] [%] | EC50 ([1]; read-out: LXR beta IP) [nM] | Emax [2, 3] [%] | EC50 [2] [nM] | LXR alpha IP (nM) [2] | EC50 ([1]; LXR beta IP (nM)) [nM] | Emax [1] [%] | Emax [2] [%] | LXR beta Activity @ max dose (%) [1, 3] [%] | LXR alpha Activity @ max dose (%) [2, 3] [%] |
| --- | --- | --- | --- | --- | --- | --- | --- | --- | --- | --- |
| CN(C)C(=O)c1ncc(N2CCC(CC3CCN(C(=O)[C@](O)(c4ccccc4)C(F)(F)F)CC3)CC2)cc1Cl [Example 2-4, 3-chloro-N,N-dimethyl-5-[4-({1-[(2R)-3,3,3-trifluoro-2-hydroxy-2-phenylpropanoyl]piperidin-4-yl}methyl)piperidin-1-yl] pyridine-2-carboxamide] | 80 | 19 | 24 | 461 |  |  |  |  |  |  |
| CN(C)C(=O)c1ccc(N2CCC(CC3CN(C(=O)C(O)(c4cccc(C(F)(F)F)c4)C(F)(F)F)C3)CC2)cc1Cl (stereo not drawn) [Example 2-66, 2-chloro-N,N-dimethyl-4-{4-[(1-{3,3,3-trifluoro-2-hydroxy-2-[3-(trifluoromethyl)phenyl]propanoyl}azetidin-3-yl)methyl]piperidin-1-yl}benzamide] | 69 | 50 | 14 |  | NO IP |  |  |  |  |  |
| CN(C)C(=O)c1ccc(N2CCC(CC3CCN(C(=O)C4(c5ccccc5)CCCC4)CC3)CC2)nc1Cl [Example 7-64, 2-chloro-N,N-dimethyl-6-[4-({1-[(1-phenylcyclopentyl)carbonyl]piperidin-4-yl}methyl)piperidin-1-yl]pyridine-3-carboxamide] | 80 | 57 | 19 | 663 |  |  |  |  |  |  |
| O=C(NCCn1cncn1)c1ccc(N2CCC(CC3CCN(C(=O)[C@](O)(c4cc(Cl)cc(Cl)c4)C(F)(F)F)CC3)CC2)cc1Cl [Example 7-130, 2-chloro-4-[4-({1-[(2R)-2-(3,5-dichlorophenyl)-3,3,3-trifluoro-2-hydroxypropanoyl]piperidin-4-yl}methyl)piperidin-1-yl]-N-[2-(1H-1,2,4-triazol-1-yl)ethyl]benzamide] | 54 | 73 | 7 |  | NO IP |  |  |  |  |  |
| CN(C)C(=O)c1ccc(N2CCC(CC3CN(C(=O)C(O)(c4cccc(Cl)c4)C(F)(F)F)C3)CC2)cc1Cl (stereo not drawn) [Example 2-65, 2-chloro-4-[4-({1-[2-(3-chlorophenyl)-3,3,3-trifluoro-2-hydroxy-propanoyl]azetidin-3-yl}methyl)piperidin-1-yl]-N,N-dimethyl-benzamide] | 89 | 17 | 35 | 694 |  |  |  |  |  |  |
| CC(C)c1cccc([C@@](O)(C(=O)N2CCC(C)(CC3CCN(c4ccc(C(=O)N(C)C)c(Cl)c4)CC3)CC2)C(F)(F)F)c1 [Example 2-56, 2-chloro-N,N-dimethyl-4-{4-[(4-methyl-1-{(2R)-3,3,3-trifluoro-2-hydroxy-2-[3-(1-methylethyl)phenyl]propanoyl}piperidin-4-yl)methyl]piperidin-1-yl}benzamide] | 37 | 18 | 2 |  | NO IP |  |  |  |  |  |
| COc1cc(F)cc([C@@](O)(C(=O)N2CC(CC3CCN(c4ccc(C(=O)N(C)C)c(Cl)c4)CC3)C2)C(F)(F)F)c1 [Example 2-61, 2-chloro-N,N-dimethyl-4-[4-({1-[(2R)-3,3,3-trifluoro-2-(3-fluoro-5-methoxyphenyl)-2-hydroxy-propanoyl]azetidin-3-yl}methyl)piperidin-1-yl]benzamide] | 74 | 7 | 21 | 277 |  |  |  |  |  |  |
| CNC(=O)c1ccc(N2CCC(CC3CCN(C(=O)[C@](O)(c4cccc(OC)c4)C(F)(F)F)CC3)CC2)cc1Cl [Example 7-33, 2-chloro-N-methyl-4-[4-({1-[(2R)-3,3,3-trifluoro-2-hydroxy-2-(3-methoxyphenyl)propanoyl]piperidin-4-yl}methyl)piperidin-1-yl]benzamide] | 60 | 10 | 12 |  | NO IP |  |  |  |  |  |
| CNC(=O)c1ccc(N2CCC(CC3CCN(C(=O)[C@](O)(c4cccc(C(C)C)c4)C(F)(F)F)CC3)CC2)cc1Cl [Example 7-123, 2-chloro-N-methyl-4-{4-[(1-{(2R)-3,3,3-trifluoro-2-hydroxy-2-[3-(1-methylethyl)phenyl]propanoyl}piperidin-4-yl)methyl]piperidin-1-yl}benzamide] | 73 | 17 | 21 | 307 |  |  |  |  |  |  |
| CN(C)C(=O)c1ccc(N2CCC(CC3CCN(C(=O)C(O)(c4ccccc4)C4CCCC4)CC3)CC2)nc1Cl (stereo not drawn) [Example 7-94, 2-chloro-6-[4-({1-[cyclopentyl(hydroxy)phenylacetyl]piperidin-4-yl}methyl)piperidin-1-yl]-N,N-dimethylpyridine-3-carboxamide] |  |  |  |  | NO IP | 72 | 62 | 10 |  |  |
| CC(C)(C(=O)N1CCC(CC2CCN(c3cccc(S(C)(=O)=O)c3)CC2)CC1)c1ccccc1 [Example 2-73, 1-(2-methyl-2-phenylpropanoyl)-4-({1-[3-(methylsulfonyl)phenyl]piperidin-4-yl}methyl)piperidine] | 77 | 223 | 35 | 5370 |  |  |  |  |  |  |
| CC(C)Oc1cccc(C(O)(C(=O)N2CCC(CC3CCN(c4ccc(C(=O)N(C)C)c(Cl)c4)CC3)CC2)C(F)(F)F)c1 (stereo not drawn) [Example 2-82, 2-chloro-N,N-dimethyl-4-{4-[(1-{3,3,3-trifluoro-2-hydroxy-2-[3-(1-methyl-ethoxy)phenyl]propanoyl}piperidin-4-yl)methyl]piperidin-1-yl}benzamide] | 50 | 12 | 13 |  | NO IP |  |  |  |  |  |
| CN(C)C(=O)c1ccc(N2CCC(CC3CCN(C(=O)[C@@](N)(c4ccccc4)C(F)(F)F)CC3)CC2)nc1Cl [Example 7-110, 6-[4-({1-[(2S)-2-amino-3,3,3-trifluoro-2-phenylpropanoyl]piperidin-4-yl}methyl)piperidin-1-yl]-2-chloro-N,N-dimethylpyridine-3-carboxamide] | 54 | 118 | 10 |  | NO IP |  |  |  |  |  |
| CN(C)C(=O)c1ccc(N2CCC(OC3CCN(C(=O)[C@](O)(c4ccccc4)C(F)(F)F)CC3)CC2)cc1Cl [Example 2-21, 2-chloro-N,N-dimethyl-4-[4-({1-[(2R)-3,3,3-trifluoro-2-hydroxy-2-phenylpropanoyl]piperidin-4-yl}oxy)piperidin-1-yl]benzamide] |  |  |  |  | NO IP |  |  |  | 65 | 0 |
| CCc1cccc(C(O)(C(=O)N2CCC(CC3CCN(c4ccc(C(=O)N(C)C)c(Cl)n4)CC3)CC2)C(F)(F)F)c1 (stereo not drawn) [Example 7-90, 2-chloro-6-[4-({1-[2-(3-ethylphenyl)-3,3,3-trifluoro-2-hydroxypropanoyl]piperidin-4-yl}methyl)piperidin-1-yl]-N,N-dimethylpyridine-3-carboxamide] | 41 | 6 | 10 |  | NO IP |  |  |  |  |  |
| CN(C)C(=O)c1ccc(N2CCC(CC3CCN(C(=O)C(O)(c4cc(F)cc(F)c4)C(F)(F)F)CC3)CC2)nc1Cl (stereo not drawn) [Example 7-82, 2-chloro-6-[4-({1-[2-(3,5-difluorophenyl)-3,3,3-trifluoro-2-hydroxypropanoyl]piperidin-4-yl}methyl)piperidin-1-yl]-N,N-dimethylpyridine-3-carboxamide] | 111 | 7 | 53 | 106 |  |  |  |  |  |  |
| CN(C)C(=O)c1ccc(N2CCC(CC3CCN(C(=O)C(O)(c4cc(F)cc(F)c4)C(F)(F)F)CC3)CC2)cc1 (stereo not drawn) [Example 2-126, 4-[4-({1-[2-(3,5-difluoro-phenyl)-3,3,3-trifluoro-2-hydroxy-propanoyl]piperidin-4-yl}methyl)piperidin-1-yl]-N,N-dimethyl-benzamide] | 118 | 38 | 33 | 126 |  |  |  |  |  |  |
| CN(C)C(=O)c1ccc(N2CCC(CC3CCN(C(=O)[C@](O)(c4cc(Cl)cc(Cl)c4)C(F)F)CC3)CC2)cc1Cl [Example 2-121, 2-chloro-4-[4-({1-[(2R)-2-(3,5-dichloro-phenyl)-3,3-difluoro-2-hydroxy-propanoyl]piperidin-4-yl}methyl)piperidin-1-yl]-N,N-dimethyl-benzamide] | 51 | 7 | 0 |  | NO IP |  |  |  |  |  |
| CN(C)C(=O)c1ccc(N2CCC(CC3CCN(C(=O)[C@](O)(c4cc(F)cc(Cl)c4)C(F)(F)F)CC3)CC2)cc1 [Example 2-139, 4-[4-({1-[(2R)-2-(3-chloro-5-fluorophenyl)-3,3,3-trifluoro-2-hydroxy-propanoyl]piperidin-4-yl}methyl)piperidin-1-yl]-N,N-dimethyl-benzamide] | 95 | 14 | 36 | 266 |  |  |  |  |  |  |
